Data on 50 molecules can be found in US8362000B2, “Azetidinyl diamides as monoacylglycerol lipase inhibitors” (Janssen Pharmaceutica NV, priority 2009, dated 2013).

Structures are written as SMILES. Where a chain is given by its changes, count along the chain named.

The target in one assay is T1, purified wild type MGL (wt-MGLL 6H-11-313) (Homo sapiens, UniProt Q99685).
T1 sequence (Q99685 1-303): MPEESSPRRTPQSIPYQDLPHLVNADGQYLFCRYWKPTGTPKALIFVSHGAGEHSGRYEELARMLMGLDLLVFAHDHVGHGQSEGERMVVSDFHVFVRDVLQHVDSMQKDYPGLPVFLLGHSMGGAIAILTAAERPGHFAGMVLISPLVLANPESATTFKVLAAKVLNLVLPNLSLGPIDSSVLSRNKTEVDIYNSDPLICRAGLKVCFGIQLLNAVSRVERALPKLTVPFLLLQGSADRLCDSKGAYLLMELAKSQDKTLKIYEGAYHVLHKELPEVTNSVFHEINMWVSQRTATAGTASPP
Assay: not given
Conditions: not given
For the molecule `Cc1cccc(Nc2ccccc2C(=O)N2CC(N3CCN(C(=O)c4nccs4)CC3)C2)c1C` [Cpd 744], the IC50 (commonly the concentration needed to halve the response being measured) came out at 0.335 µM.

Consider `O=C(c1nccs1)N1CCN(C2CN(C(=O)c3ccccc3Nc3ccccc3)C2)CC1` [Cpd 781], for which the IC50 came to 1.04 µM. `O=C(c1ccccc1)N1CCN(C2CN(C(=O)c3ccc(Oc4ccccc4Cl)nc3)C2)CC1` [Cpd 521] gave a half-maximal inhibitory concentration (IC50) of 2.19 µM.

For the molecule `O=C(c1ccccc1)N1CCN(C2CN(C(=O)c3ccc4c(-c5ccccc5)ncnc4c3)C2)CC1` [Cpd 604], the IC50 was 1.84 µM. On to `Cc1c(-c2ccccc2)oc2c(C(=O)N3CCN(C4CN(C(=O)c5ccccc5)C4)CC3c3ccccc3)cccc2c1=O` (centres unmarked) [Cpd 1489], for which the IC50 is over 16.7 µM. Molecule `O=C(c1ccc2[nH]c(Cc3ccccc3)nc2c1)N1CC(N2CCN(C(=O)c3cscn3)CC2)C1` [Cpd 1003] yielded a concentration for half-maximal inhibition (IC50) of 1.61 µM. Molecule `O=C(c1nccs1)N1CCN(C2CN(C(=O)c3nc4cc(Cl)ccc4s3)C2)CC1` [Cpd 728] registered an IC50 of 0.231 µM. Consider `Cn1cc(Cc2cccc(F)c2)c2ccc(C(=O)N3CC(N4CCN(C(=O)c5nccs5)CC4)C3)cc21` [Cpd 1033, 3-(3-Fluorobenzyl)-1-methyl-6-({3-[4-(1,3-thiazol-2-ylcarbonyl)piperazin-1-yl]azetidin-1-yl}carbonyl)-1H-indole], for which the half-inhibitory concentration (IC50) is under 0.005 µM. In turn, `Cc1c(-c2ccccc2)oc2c(C(=O)N3CCN(C4CN(C(=O)c5cscn5)C4)CC3c3ccccc3)cccc2c1=O` (centres unmarked) [Cpd 1436] yielded a half-inhibitory concentration (IC50) of over 16.7 µM. Same read-out and setting: under `O=C(c1ccc(-c2ccccc2)cc1)N1CC(N2CCN(C(=O)C3CC3)CC2)C1` [Cpd 303] stands 0.173 µM; under `O=C(c1nccs1)N1CCN(C2CN(C(=O)c3ccccc3Nc3cccc(C(F)(F)F)c3)C2)CC1` [Cpd 768], 0.697 µM. With `O=C(c1ccc(S(=O)(=O)c2ccccc2)cc1)N1CC(N2CCN(C(=O)c3cscn3)CC2)C1` [Cpd 822], the 50% inhibitory concentration (IC50) worked out at 2.86 µM. For `O=C(c1cccc(-c2ccc(C(F)(F)F)cc2)c1)N1CC(N2CCN(C(=O)c3nccs3)CC2)C1` [Cpd 149], the IC50 worked out at 0.0769 µM.

`O=C(c1ccc2nc(-c3ccccc3)oc2c1)N1CCN(C2CN(C(=O)c3cscn3)C2)CC1` [Cpd 1275] registered an IC50 of 1.72 µM. On to `O=C(c1ccc(CS(=O)(=O)c2cccc(C(F)(F)F)c2)cc1)N1CC(N2CCN(C(=O)C(F)(F)F)CC2)C1` [Cpd 1498], for which the IC50 was over 16.7 µM.

Molecule `Cn1cc(-c2ccc(F)cc2)c2ccc(C(=O)N3CC(N4CCN(C(=O)c5nccs5)CC4)C3)cc21` [Cpd 1318, 3-(4-Fluorophenyl)-1-methyl-6-({3-[4-(1,3-thiazol-2-ylcarbonyl)piperazin-1-yl]azetidin-1-yl}carbonyl)-1H-indole] yielded an IC50 of under 0.005 µM. The molecule `Cc1nn(-c2ccc(F)cc2)c(C)c1C(=O)N1CC(N2CCN(C(=O)c3nccs3)CC2)C1` [Cpd 1301] returned an IC50 of 4.61 µM. Take `O=C(c1nccs1)N1CC(N2CCN(C(=O)c3nc4cc(Cl)ccc4s3)CC2)C1` [Cpd 764]: the IC50 worked out at 0.636 µM. In the case of `Cc1nc2cc(C(=O)N3CC(N4CCN(C(=O)c5cscn5)CC4)C3)ccc2n1C1CCC(F)(F)CC1` [Cpd 1506], the IC50 was over 16.7 µM. In the case of `COc1cccc2c(C)c(C(=O)N3CCN(C4CN(C(=O)c5nccs5)C4)CC3)[nH]c12` [Cpd 846], half-maximal inhibition (IC50) required 6.45 µM. In turn, `O=C(c1cscn1)N1CCN(C2CN(C(=O)c3nc4ccc(F)cc4[nH]3)C2)CC1` [Cpd 1442] registered an IC50 of over 16.7 µM. Turning to `Cc1c(-c2ccccc2)oc2c(C(=O)N3CCN(C4CN(C(=O)c5nccs5)C4)CC3c3ccccc3)cccc2c1=O` (centres unmarked) [Cpd 854], half-maximal inhibition (IC50) required 8.41 µM. `O=C(c1ccccc1)N1CCN(C2CN(C(=O)c3cc4cc(C(F)(F)F)ccc4s3)C2)CC1` [Cpd 124] returned an IC50 of 0.321 µM.

`O=C(c1ccc2[nH]c3c(c2c1)CCCC3)N1CC(N2CCN(C(=O)c3cscn3)CC2)C1` [Cpd 817] returned an IC50 of 2.7 µM.

As for `O=C(c1ccc(S(=O)(=O)c2cccc(C(F)(F)F)c2)cc1)N1CC(N2CCN(C(=O)C(F)(F)F)CC2)C1` [Cpd 1493], the IC50 was over 16.7 µM.

On to `O=C(c1nccs1)N1CCN(C2CN(C(=O)c3cnn(-c4ccccc4)c3-c3ccccc3)C2)CC1` [Cpd 1297], for which the IC50 stood at 3.31 µM.

Turning to `Cc1nn(-c2ccc(Cl)cc2)nc1C(=O)N1CC(N2CCN(C(=O)c3nccs3)CC2)C1` [Cpd 1218], the midpoint of inhibition, the IC50, lay at 0.222 µM. `O=C(c1nccs1)N1CCN(C2CN(C(=O)c3ccccc3Nc3cccc(F)c3)C2)CC1` [Cpd 754] displayed a 50% inhibitory concentration (IC50) of 0.447 µM.

In the case of `O=C(c1ccc2[nH]c(CCc3ccccc3)nc2c1)N1CC(N2CCN(C(=O)c3nccs3)CC2)C1` [Cpd 1000], half-maximal inhibition (IC50) was put at 0.111 µM.

`O=C(c1ccc(Oc2ccccc2Cl)nc1)N1CC(N2CCN(C(=O)c3nccs3)CC2)C1` [Cpd 708] displayed a half-maximal inhibitory concentration (IC50) of 0.106 µM. `Cn1cc(-c2ccccc2)c2ccc(C(=O)N3CC(N4CCN(C(=O)c5ccccc5)CC4)C3)cc21` [Cpd 585]: the IC50 came to 0.107 µM.

A further assay concerns the target T2, mutant MGL (Homo sapiens, UniProt Q99685, L169S/L176S).
T2 sequence (Q99685 1-303 L169S/L176S): T1 sequence (Q99685 1-303) with L169S, L176S
Put plainly: MGL ThermoFluor assay - mutant. As to conditions: ThermoFluor concentration-response, read-out: MGL mutant ThermoFluor Kd. The assay is classed as binding.
Regarding `O=C(c1ccccc1)N1CCN(C2CN(C(=O)c3ccc(-n4ccc(C(F)(F)F)n4)cc3)C2)CC1` [Cpd 622, 1-(Phenylcarbonyl)-4-[1-({4-[3-(trifluoromethyl)-1H-pyrazol-1-yl]phenyl}carbonyl)azetidin-3-yl]piperazine], the dissociation constant (Kd) – broadly, a measure of binding affinity in units of concentration – came to 3.6 µM.

Turning to `O=C(c1ccccc1)N1CCN(C2CN(C(=O)c3cccc(-n4cccc4)c3)C2)CC1` [Cpd 627, 1-(Phenylcarbonyl)-4-(1-{[3-(1H-pyrrol-1-yl)phenyl]carbonyl}azetidin-3-yl)piperazine], the Kd is 10 µM. For `O=C(c1ccccc1)N1CCN(C2CN(C(=O)c3cccc(CNc4ccccc4F)c3)C2)CC1` [Cpd 561], the Kd came out at 0.542 µM. `Cc1nc(-c2ccc(Cl)cc2)sc1C(=O)N1CC(N2CCN(C(=O)c3ccccc3)CC2)C1` [Cpd 619]: the dissociation constant (Kd) worked out at 0.172 µM.

In the case of `O=C(c1ccc(CNc2cccc(Cl)c2)cc1)N1CC(N2CCN(C(=O)c3nccs3)CC2)C1` [Cpd 455], the Kd amounted to 0.0085 µM. `Cc1nc(-c2cccc(Cl)c2)sc1C(=O)N1CC(N2CCN(C(=O)c3ccccc3)CC2)C1` [Cpd 620, 1-(1-{[2-(3-Chlorophenyl)-4-methyl-1,3-thiazol-5-yl]carbonyl}azetidin-3-yl)-4-(phenylcarbonyl)piperazine]: the Kd is 0.154 µM. As to `CN(C)c1ccc(C(=O)N2CC(N3CCN(C(=O)c4ccccc4)CC3)C2)cc1` [Cpd 31, N,N-Dimethyl-4-({3-[4-(phenylcarbonyl)piperazin-1-yl]azetidin-1-yl}carbonyl)aniline], the Kd was 1.43 µM. Regarding `O=C(c1ccccc1)C1CCC(C(=O)N2CC(N3CCN(C(=O)c4ccccc4)CC3)C2)CC1` (centres unmarked) [Cpd 108, Phenyl[4-({3-[4-(phenylcarbonyl)piperazin-1-yl]azetidin-1-yl}carbonyl)cyclohexyl]methanone], the dissociation constant (Kd) stood at 1.25 µM. For `O=C(c1cc(F)cc(Br)c1)N1CC(N2CCN(C(=O)c3nccs3)CC2)C1` [Cpd 912], the equilibrium dissociation constant (Kd) was 1.32 µM. The same measure, in the same setting: under `O=C(c1ccccc1)N1CCN(C2CN(C(=O)C3CCC(c4ccc(Cl)cc4)CC3)C2)CC1` (centres unmarked) [Cpd 503] stands 0.254 µM; under `O=C(c1ccccc1)N1CCN(C2CN(C(=O)c3ccc(N4CCCC4)cc3)C2)CC1` [Cpd 29, 1-(Phenylcarbonyl)-4-{1-[(4-pyrrolidin-1-ylphenyl)carbonyl]azetidin-3-yl}piperazine], 0.1 µM.

On to `O=C(c1ccccc1)N1CCN(C2CN(C(=O)c3ccc(SCc4cccnc4)cc3)C2)CC1` [Cpd 555], for which the dissociation constant Kd was 2 µM.

Staying with this assay, now noted: ThermoFluor thermal stability binding assay, read-out: MGL mutant ThermoFluor Kd.
Regarding `O=C(c1ccc2c(c1)CCCN2c1ncccn1)N1CC(N2CCN(C(=O)c3nccs3)CC2)C1` [Cpd 375, 1-Pyrimidin-2-yl-6-({3-[4-(1,3-thiazol-2-ylcarbonyl)piperazin-1-yl]azetidin-1-yl}carbonyl)-1,2,3,4-tetrahydroquinoline], the dissociation constant Kd turned out to be 0.229 µM. `O=C(c1ccccc1)N1CCN(C2CN(C(=O)c3ccc4nc(-c5cccc(C(F)(F)F)c5)oc4c3)C2)CC1` [Cpd 131, 6-({3-[4-(Phenylcarbonyl)piperazin-1-yl]azetidin-1-yl}carbonyl)-2-[3-(trifluoromethyl)phenyl]-1,3-benzoxazole]: the equilibrium dissociation constant (Kd) was 0.0941 µM.

In the case of `O=C(c1nccs1)N1CCN(C2CN(C(=O)c3sc4cc(-c5ccccc5)ccc4c3Cl)C2)CC1` [Cpd 343, 1-{1-[(3-Chloro-6-phenyl-1-benzothiophen-2-yl)carbonyl]azetidin-3-3yl}-4-(1,3-thiazol-2-ylcarbonyl)piperazine], the Kd was 0.0004 µM. Regarding `O=C(c1ccc(-c2ccccc2)cc1)N1CC(N2CCN(C(=O)c3ncccn3)CC2)C1` [Cpd 1478], the equilibrium dissociation constant (Kd) is over 31.2 µM. In the case of `O=C(c1ccc(OCc2cccc(Cl)c2Cl)c(F)c1)N1CC(N2CCN(C(=O)c3nccs3)CC2)C1` [Cpd 405, 1-[1-({4-[(2,3-Dichlorobenzyl)oxy]-3-fluorophenyl}carbon-yl)azetidin-3-yl]-4-(1,3-thiazol-2-ylcarbonyl)piperazine], the dissociation constant Kd came to 0.002 µM. With `O=C(c1nccs1)N1CCN(C2CN(C(=O)c3cccc4nc(Cc5ccccc5F)[nH]c34)C2)CC1` [Cpd 989], the dissociation constant (Kd) turned out to be 1.25 µM. As to `CC(=O)N1c2ccc(Br)cc2CCC1C(=O)N1CC(N2CCN(C(=O)c3cscn3)CC2)C1` (centres unmarked) [Cpd 377], the Kd is over 76.7 µM.
